Legend:
integrin-αvβ1 = integrin-αvβ1 (Homo sapiens, UniProt P05556+P06756); assay: SPR binding of peptides to integrin-αvβ1 (Biacore 8K+); details: Biacore 8K+, 25°C, integrin-αvβ1 on CM5 chip, PBS + 0.05% Tween-20, peptide 0.78-100 μM, Figure 7E, small labels, best readings
Protocol: The Biacore 8K+ system (GE Healthcare) was used at 25°C. The ligand integrin-αvβ1 (1 mg/mL) was routinely coupled to the sensor chip (Series S Sensor Chip CM5, Cytiva, #100530). The peptide samples SDC4_87-131 and CS-1, -2, -3, -4, -8, -9, -10 were dissolved in PBS, and then, the samples with different concentration gradients (0.78, 1.56, 3.125, 6.25, 12.5, 25, 50, 100 μM) were injected, respectively, under the driving of buffer PBST (PBS + 0.05% Tween-20). The signal intensity was quantified in relative units (RU), and binding affinity was determined using the dissociation constant (Kd). After the experiment, 10 mM glycine-HCl buffer solution (pH = 2) was selected to regenerate the chip surface.

NIH3T3 cells = assay: RT-PCR of fibroblast activation markers, TGF-β1 and inflammatory factors in dECM-stimulated fibroblast; format: cell-based, mouse; details: for mRNA levels of α-SMA, FN, Col I and TGF-β1: peptide, induced by dECM-Nor and dECM-PF
Protocol: (§1) Decellularized lung ECM (dECM) was prepared as described in previous study. 2 × 10^5 cells/mL NIH3T3 cells (mouse […], purchased from the Stem Cell Bank of the Chinese Academy of Sciences, Shanghai, China) were seeded on the dECM slices attached to the bottom of the culture dish and cultured in DMEM medium containing 0.5% fetal bovine serum (Gibco, Waltham, MA, USA) at 37°C and 5% CO2.
(§2) Total RNA was extracted from cells or lung tissue (10 mg) using Trizol reagent, and mRNA was reverse transcribed into cDNA using HiScript® II QRT SuperMix for qPCR (Vazyme, #R223-01). Real-time fluorescence quantitative PCR (RT-PCR) was performed using Hieff® qPCR SYB Green Master Mix (YEASEN, #11201ES08) to obtain the Ct value. The 2^−ΔΔCt method was used to obtain the relative expression level of mRNA in each group. Primers (Table 1) were purchased from Sangon Biotech.

pan-integrins = assay: FN-coating cell adhesion assay (pan-integrins activation); format: cell-based, mouse; details: 100 nM, n=4–5
Protocol: 10 μg/mL Fibronectin (Merck, #10838039001) was dissolved in serum-free DMEM medium and dropped into a 96-well plate, 50 μL per well. The plate was incubated at 4 °C overnight. After blocking with 3% bovine serum albumin at room temperature for 30 min, 4×10^4 cells were inoculated into each well. After incubation for 30 min, the cells were washed, fixed, and stained with crystal violet (5 mg/mL) for 30 min. Then after the crystal violet was dissolved, it was detected using an ELISA reader at 595 nm.

[1] = tested on: integrin-αvβ1, FAK/AKT and PKCα/NF-κB pathways in NIH3T3 cells; assay: Western blot of signaling proteins in dECM-stimulated fibroblast; format: cell-based, mouse; details: dECM, n=3; for protein levels of α-SMA, integrin-αv, p-FAK and p-PKCα: designed peptides
Protocol: as §1
20 mg of lung tissue was extracted with RIPA lysis buffer (Roche International Ltd., Bermuda, USA), and the protein concentration was determined using a BCA protein detection kit (Roche). Protein samples were separated by 10% sodium dodecyl sulfate polyacrylamide gel (SDS-PAGE) electrophoresis and transferred to a PVDF membrane. After blocking, the PVDF membrane was incubated with primary antibodies for α-SMA, Integrin-αV, SDC4, Integrin-β1, p-Smad3, FAK, and p-FAK (CST, #19245, #4711, #12236S, #34971, #9520S, #3285S, and #3284S) at 4°C overnight, followed by incubation with secondary antibodies (CST, #7074P2), development with ECL reagent (SAB), and acquisition of images with a chemiluminescence imaging system (ChemiScope 5600).

fibroblast = assay: CCK-8 fibroblast viability/toxicity; format: cell-based, mouse; details: discussion
Protocol: as §1
(A) Schematic diagram of SDC487-131; (B) Effect of SDC487-131 and GRGDNP on fibroblast proliferation at 48 h was determined by CCK-8 method (n=3); (C) Effect of different concentration of SDC487-131 on fibroblast activation induced by d-PF for 48 h (n=5). Note: **p < 0.01 vs. PBS in d-Nor group; #p < 0.05 vs. PBS in d-PF group. d-Nor: dECM-Nor; d-PF: dECM-PF.
Figure S14. The viability of fibroblast after treated with peptides for 48 h was detected by CCK-8 assay.

[2] = tested on: BLM-induced PF, C57BL/6J mice; assay: BLM-induced PF in mice: HE, Masson, hydroxyproline; format: in vivo, mouse; details: 1 mg/kg tracheal instillation
Protocol: C57BL/6J mice (male, 8-to 9-week old, 18–22 g, SPF grade) were purchased from Shanghai Slake Laboratory Animal Co., Ltd. [SCXK (Hu) 2022-0004, Shanghai, China]. […] The mice were housed in an SPF environment with 22–25°C, 46–65% humidity and 12 h/12 h light-dark alternation, with free access to water and food. This animal experiment was approved by the Experimental Animal Welfare Ethics Committee of Fujian Medical University (No. FJMU IACUC 2021-0465), and was carried out in accordance with the National Research Council's Guide for the Care and Use of Laboratory Animals.
(§3) After the mice were anesthetized (1% sodium pentobarbital 50 mg/kg was injected intraperitoneally), 150 μL of bleomycin (BLM, 5 mg/mL, BIO-000001) was inhaled into the lungs of the mice by tracheal inhalation instillation. One day later, the mice were randomly divided into model and drug treatment groups, and the mice in the control group were only subjected to saline inhalation.
(§4) Based on the dosage of SDC2 fragment peptide and our experimental results (Supplementary Figure S10A and B), the dosage schedule of SDC4_87-131 was set as follows: starting on the third day after BLM inhalation, 1 mg/kg, administered via trachea infusion once every three days. And Anti-SDC4(93-121) 8 mg/kg was administered on the third and tenth days (reference dosage).
Lung tissue samples were paraffin-embedded, then sliced and dewaxed, and HE and Masson staining were performed respectively. After dehydration and sealing, images were collected and analyzed using a microscope.
100 mg of lung tissue was accurately weighed and processed according to the instructions of the hydroxyproline assay kit (Nanjing Jiancheng, Nanjing, China), and the absorbance was measured at a wavelength of 550 nm. The data were expressed as micrograms (µg) of hydroxyproline per mg of dry lung tissue.

[3] = tested on: BLM-induced PF, C57BL/6J mice; assay: BLM-induced PF in mice: RT-PCR of lung tissue; format: in vivo, mouse; details: 1 mg/kg tracheal instillation, q3d, n=4–6
Protocol: as §3, §4, §2

Sequence of integrin-αvβ1 (P06756 31-992 limits assumed): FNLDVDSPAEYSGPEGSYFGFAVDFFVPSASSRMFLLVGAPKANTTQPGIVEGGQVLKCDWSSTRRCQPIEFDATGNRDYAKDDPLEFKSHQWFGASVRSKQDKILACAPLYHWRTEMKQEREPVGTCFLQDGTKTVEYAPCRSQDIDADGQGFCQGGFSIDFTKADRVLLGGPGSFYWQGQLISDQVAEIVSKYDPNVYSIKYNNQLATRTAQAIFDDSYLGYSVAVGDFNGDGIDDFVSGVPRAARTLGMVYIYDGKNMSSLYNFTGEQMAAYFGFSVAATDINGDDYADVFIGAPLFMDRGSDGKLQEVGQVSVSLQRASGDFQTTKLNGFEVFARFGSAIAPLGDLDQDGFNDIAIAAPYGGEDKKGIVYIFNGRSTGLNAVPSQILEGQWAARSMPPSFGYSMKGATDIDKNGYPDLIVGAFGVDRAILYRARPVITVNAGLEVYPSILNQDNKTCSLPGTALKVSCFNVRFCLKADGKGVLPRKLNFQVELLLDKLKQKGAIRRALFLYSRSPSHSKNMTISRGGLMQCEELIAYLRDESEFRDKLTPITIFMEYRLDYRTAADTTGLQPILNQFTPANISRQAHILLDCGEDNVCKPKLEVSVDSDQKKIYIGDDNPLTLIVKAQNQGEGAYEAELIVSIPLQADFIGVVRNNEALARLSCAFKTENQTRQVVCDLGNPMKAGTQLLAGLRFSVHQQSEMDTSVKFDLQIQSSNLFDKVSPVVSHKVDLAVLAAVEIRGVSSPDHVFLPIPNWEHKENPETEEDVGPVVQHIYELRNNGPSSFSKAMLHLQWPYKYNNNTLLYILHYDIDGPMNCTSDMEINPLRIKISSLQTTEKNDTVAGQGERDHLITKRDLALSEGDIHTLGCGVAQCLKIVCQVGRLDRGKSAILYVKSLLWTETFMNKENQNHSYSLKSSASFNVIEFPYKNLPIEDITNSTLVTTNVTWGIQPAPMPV
Sequence of integrin-αvβ1 (P05556 21-728 partner limits assumed): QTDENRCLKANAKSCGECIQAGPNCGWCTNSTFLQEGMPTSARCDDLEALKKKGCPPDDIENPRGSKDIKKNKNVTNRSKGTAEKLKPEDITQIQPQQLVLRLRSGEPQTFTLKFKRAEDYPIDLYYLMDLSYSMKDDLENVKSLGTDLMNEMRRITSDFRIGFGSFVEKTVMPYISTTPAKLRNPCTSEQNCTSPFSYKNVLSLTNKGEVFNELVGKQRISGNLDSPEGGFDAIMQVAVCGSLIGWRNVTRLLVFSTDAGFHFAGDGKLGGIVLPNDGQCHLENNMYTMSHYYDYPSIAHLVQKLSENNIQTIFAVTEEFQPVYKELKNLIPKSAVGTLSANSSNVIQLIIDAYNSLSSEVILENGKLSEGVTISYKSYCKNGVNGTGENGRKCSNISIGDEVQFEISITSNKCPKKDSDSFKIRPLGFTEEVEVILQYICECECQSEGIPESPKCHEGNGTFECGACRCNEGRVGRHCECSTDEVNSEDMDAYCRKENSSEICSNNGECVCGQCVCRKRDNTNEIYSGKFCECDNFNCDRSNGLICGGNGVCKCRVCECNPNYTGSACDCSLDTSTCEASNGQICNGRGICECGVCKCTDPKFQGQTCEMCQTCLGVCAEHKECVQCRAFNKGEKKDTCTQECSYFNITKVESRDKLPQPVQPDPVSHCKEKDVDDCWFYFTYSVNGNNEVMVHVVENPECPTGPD

## Ac-NHIPERAGSGSQVPTEPKKLSPVEESEDWSNKVSM-NH2 [CS-3]
integrin-αvβ1
  Kd: 64.9 nM
NIH3T3 cells; dECM, n=5
  effects on FN and Col I mRNA vs SDC4_87-131: significantly greater than those of SDC4_87-131
NIH3T3 cells; n=5
  mRNA levels of α-SMA, FN, Col I and TGF-β1: significantly downregulate
pan-integrins
  inhibition of pan-integrins activation vs SDC4_87-131: stronger than that of SDC4_87-131
[1]
  protein levels of α-SMA, integrin-αv, p-FAK and p-PKCα: significantly decrease the protein levels

## Ac-NHIPETVEDPEPKKLSPVEESEDITNSTLV-NH2 [CS-9]
integrin-αvβ1
  Kd: 10.9 nM
fibroblast
  toxicity (summary): low toxicity
NIH3T3 cells; dECM, n=5
  downregulation of all four mRNAs (α-SMA, FN, Col I, TGF-β1) vs SDC4_87-131: significantly higher than that of SDC4_87-131
  effects on FN and Col I mRNA vs SDC4_87-131: significantly greater than those of SDC4_87-131
NIH3T3 cells; n=5
  mRNA levels of α-SMA, FN, Col I and TGF-β1: significantly downregulate
pan-integrins
  inhibition of pan-integrins activation vs SDC4_87-131: stronger than that of SDC4_87-131
[1]
  reduction of α-SMA protein vs SDC4_87-131: stronger reduction in α-SMA than SDC4_87-131
  protein levels of α-SMA, integrin-αv, p-FAK and p-PKCα: significantly decrease the protein levels
[2]; q3d from day 3
  inhibitory effect on collagen deposition vs SDC4_87-131: significantly stronger inhibitory effect on collagen deposition than SDC4_87-131
[2]; overall, q3d
  anti-PF effect vs SDC4_87-131: significantly enhanced anti-PF effect compared with SDC4_87-131
[3]
  effects on α-SMA, FN and IL-6 vs SDC4_87-131: significantly stronger than that of SDC4_87-131

## Ac-NHIPERAVPTEPKKLSPVEESEDITNSTLV-NH2 [CS-8]
integrin-αvβ1
  Kd: 25.9 nM
NIH3T3 cells; dECM, n=5
  effects on FN and Col I mRNA vs SDC4_87-131: significantly greater than those of SDC4_87-131
NIH3T3 cells; n=5
  mRNA levels of α-SMA, FN, Col I and TGF-β1: significantly downregulate
pan-integrins
  inhibition of pan-integrins activation vs SDC4_87-131: stronger than that of SDC4_87-131
[1]
  protein levels of α-SMA, integrin-αv, p-FAK and p-PKCα: significantly decrease the protein levels

## CS(=O)(=O)c1cccc(CNc2nc(Nc3ccc4c(c3)CCC(=O)N4)ncc2C(F)(F)F)c1 [PF-573228, reference compound]
NIH3T3 cells; 1 μM, 3 μM, mRNA levels, n=4
  dECM-PF-induced fibroblast activation and TGF-β1 upregulation: significantly reduced dECM-PF-induced fibroblast activation and TGF-β1 upregulation in a dose-dependent manner

## Ac-NHIPERAGSGSQVPTEPKKLSPVEESEDRSNKVSM-NH2 [CS-2]
integrin-αvβ1
  Kd: 29.1 nM

## Ac-NHIPERAGSGSQVPTEPKKLSPVEESEDVSNKVSMTTNVT-NH2 [CS-1]
integrin-αvβ1
  Kd: 12.8 nM

## Ac-GSADPRAVPTEPKKLSPVEESEDITNSTLV-NH2 [CS-10]
integrin-αvβ1
  Kd: 35.4 nM
NIH3T3 cells; dECM, n=5
  effects on FN and Col I mRNA vs SDC4_87-131: significantly greater than those of SDC4_87-131
NIH3T3 cells; n=5
  mRNA levels of α-SMA, FN, Col I and TGF-β1: significantly downregulate
pan-integrins
  inhibition of pan-integrins activation vs SDC4_87-131: stronger than that of SDC4_87-131
[1]
  protein levels of α-SMA, integrin-αv, p-FAK and p-PKCα: significantly decrease the protein levels

## Ac-NHIPERAVPTEPKKLSPVEESEDITNSTLVTTNVT-NH2 [CS-4]
integrin-αvβ1
  Kd: 32.3 nM
NIH3T3 cells; dECM, n=5
  effects on FN and Col I mRNA vs SDC4_87-131: significantly greater than those of SDC4_87-131
NIH3T3 cells; n=5
  mRNA levels of α-SMA, FN, Col I and TGF-β1: significantly downregulate
pan-integrins
  inhibition of pan-integrins activation vs SDC4_87-131: stronger than that of SDC4_87-131
[1]
  reduction of integrin-αv and p-FAK vs SDC4_87-131: weaker reduction in integrin-αv and p-FAK compared to SDC4_87-131
  protein levels of α-SMA, integrin-αv, p-FAK and p-PKCα: significantly decrease the protein levels
